Publication PMC7026418, “The kinase polypharmacology landscape of clinical PARP inhibitors” (Scientific Reports, 2020)
Like-named read-outs stand apart in the source and are kept apart here.

How the values were obtained:
Assay in all cases: biochemical
Parameters in all cases: DiscoveRx KINOMEscan active site-directed competition binding; percent of control kinase bound to immobilised ligand
[1] = target: CAMK2A (Homo sapiens, UniProt Q9UQM7)
[2] = target: FER (Homo sapiens, UniProt P16591)
[3] = target: T1, GAK (Homo sapiens, UniProt O14976)
T1 sequence (O14976 1-1311): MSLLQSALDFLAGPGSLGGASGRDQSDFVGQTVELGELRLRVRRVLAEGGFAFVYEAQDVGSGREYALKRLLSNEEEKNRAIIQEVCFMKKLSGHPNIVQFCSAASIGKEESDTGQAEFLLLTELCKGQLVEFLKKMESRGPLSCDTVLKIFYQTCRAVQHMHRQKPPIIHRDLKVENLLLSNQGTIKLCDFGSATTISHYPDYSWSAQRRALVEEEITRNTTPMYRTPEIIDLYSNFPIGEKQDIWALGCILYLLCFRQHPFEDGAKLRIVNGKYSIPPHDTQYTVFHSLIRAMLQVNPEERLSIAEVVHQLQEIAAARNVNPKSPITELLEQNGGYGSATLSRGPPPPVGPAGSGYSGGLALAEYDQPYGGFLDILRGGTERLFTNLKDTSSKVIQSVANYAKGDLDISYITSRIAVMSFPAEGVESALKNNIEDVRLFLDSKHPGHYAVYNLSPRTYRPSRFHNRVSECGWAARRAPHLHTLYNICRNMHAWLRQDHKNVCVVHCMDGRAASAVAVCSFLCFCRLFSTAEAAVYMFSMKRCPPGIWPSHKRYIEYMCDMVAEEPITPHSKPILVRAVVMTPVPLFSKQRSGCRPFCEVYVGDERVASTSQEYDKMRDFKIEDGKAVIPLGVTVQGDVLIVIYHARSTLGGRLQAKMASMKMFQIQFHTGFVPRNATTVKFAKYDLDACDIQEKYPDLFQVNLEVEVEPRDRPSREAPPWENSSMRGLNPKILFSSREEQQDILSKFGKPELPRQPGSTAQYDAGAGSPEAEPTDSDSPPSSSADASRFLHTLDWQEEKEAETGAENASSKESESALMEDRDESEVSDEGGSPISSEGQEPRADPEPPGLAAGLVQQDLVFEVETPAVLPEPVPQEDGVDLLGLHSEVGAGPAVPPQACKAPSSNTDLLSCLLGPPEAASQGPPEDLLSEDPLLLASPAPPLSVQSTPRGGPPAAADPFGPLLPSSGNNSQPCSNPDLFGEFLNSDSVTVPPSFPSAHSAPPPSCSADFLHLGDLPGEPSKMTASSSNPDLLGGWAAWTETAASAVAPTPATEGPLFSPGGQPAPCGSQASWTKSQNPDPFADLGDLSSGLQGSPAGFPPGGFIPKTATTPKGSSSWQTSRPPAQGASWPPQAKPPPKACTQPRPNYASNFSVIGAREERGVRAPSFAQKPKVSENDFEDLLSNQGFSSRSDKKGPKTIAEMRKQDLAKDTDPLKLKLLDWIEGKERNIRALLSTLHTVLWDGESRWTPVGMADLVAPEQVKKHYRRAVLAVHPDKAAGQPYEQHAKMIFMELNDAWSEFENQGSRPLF

[4] = target: T2, MAP3K3 (Homo sapiens, UniProt Q99759)
T2 sequence (Q99759 1-626): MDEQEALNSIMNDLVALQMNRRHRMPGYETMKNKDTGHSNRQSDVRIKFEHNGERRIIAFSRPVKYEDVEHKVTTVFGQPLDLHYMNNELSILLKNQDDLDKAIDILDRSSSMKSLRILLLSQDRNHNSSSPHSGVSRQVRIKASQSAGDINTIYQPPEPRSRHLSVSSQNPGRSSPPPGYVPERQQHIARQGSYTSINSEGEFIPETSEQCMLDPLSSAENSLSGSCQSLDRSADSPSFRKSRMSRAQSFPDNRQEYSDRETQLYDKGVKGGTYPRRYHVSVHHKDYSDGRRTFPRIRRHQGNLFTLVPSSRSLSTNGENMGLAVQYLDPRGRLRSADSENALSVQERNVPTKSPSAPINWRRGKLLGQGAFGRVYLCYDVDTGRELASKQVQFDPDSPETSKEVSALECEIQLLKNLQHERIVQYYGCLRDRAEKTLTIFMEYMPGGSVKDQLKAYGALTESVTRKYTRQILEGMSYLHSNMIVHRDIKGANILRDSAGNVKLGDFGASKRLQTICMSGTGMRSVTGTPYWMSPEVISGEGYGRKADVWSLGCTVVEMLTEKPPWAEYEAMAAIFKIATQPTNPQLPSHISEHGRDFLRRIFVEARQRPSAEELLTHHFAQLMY

[5] = target: MARK1 (Homo sapiens, UniProt Q9P0L2)
[6] = target: MKNK2 (Homo sapiens, UniProt Q9HBH9)
[7] = target: T3, NIK (Homo sapiens, UniProt Q99558)
T3 construct: gene MAP3K14

[8] = target: WNK2 (Homo sapiens, UniProt Q9Y3S1)
[9] = target: T4, YSK1 (Homo sapiens, UniProt O00506)
T4 construct: gene STK25

[10] = read-out: Niraparib (MK-4827) / %Ctrl @ 10000nM
[11] = read-out: Olaparib / %Ctrl @ 10000nM
[12] = read-out: Rucaparib / %Ctrl @ 10000nM, binding competition, % of control
[13] = read-out: Talazoparib (BMN 673) / %Ctrl @ 10000nM

Sequence of MKNK2 (Q9HBH9 whole entry): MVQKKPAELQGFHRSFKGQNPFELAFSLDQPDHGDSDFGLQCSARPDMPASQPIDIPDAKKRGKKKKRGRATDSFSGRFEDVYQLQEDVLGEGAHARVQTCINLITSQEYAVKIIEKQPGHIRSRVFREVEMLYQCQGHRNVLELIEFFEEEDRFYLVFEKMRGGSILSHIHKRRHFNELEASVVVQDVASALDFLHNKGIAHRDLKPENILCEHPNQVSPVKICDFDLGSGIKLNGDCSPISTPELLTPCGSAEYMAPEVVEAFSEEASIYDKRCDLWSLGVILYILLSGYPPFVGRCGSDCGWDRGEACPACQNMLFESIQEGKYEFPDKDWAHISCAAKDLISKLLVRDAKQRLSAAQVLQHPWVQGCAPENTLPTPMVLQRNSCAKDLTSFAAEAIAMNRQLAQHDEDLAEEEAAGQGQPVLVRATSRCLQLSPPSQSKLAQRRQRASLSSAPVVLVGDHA
Sequence of MARK1 (Q9P0L2 whole entry): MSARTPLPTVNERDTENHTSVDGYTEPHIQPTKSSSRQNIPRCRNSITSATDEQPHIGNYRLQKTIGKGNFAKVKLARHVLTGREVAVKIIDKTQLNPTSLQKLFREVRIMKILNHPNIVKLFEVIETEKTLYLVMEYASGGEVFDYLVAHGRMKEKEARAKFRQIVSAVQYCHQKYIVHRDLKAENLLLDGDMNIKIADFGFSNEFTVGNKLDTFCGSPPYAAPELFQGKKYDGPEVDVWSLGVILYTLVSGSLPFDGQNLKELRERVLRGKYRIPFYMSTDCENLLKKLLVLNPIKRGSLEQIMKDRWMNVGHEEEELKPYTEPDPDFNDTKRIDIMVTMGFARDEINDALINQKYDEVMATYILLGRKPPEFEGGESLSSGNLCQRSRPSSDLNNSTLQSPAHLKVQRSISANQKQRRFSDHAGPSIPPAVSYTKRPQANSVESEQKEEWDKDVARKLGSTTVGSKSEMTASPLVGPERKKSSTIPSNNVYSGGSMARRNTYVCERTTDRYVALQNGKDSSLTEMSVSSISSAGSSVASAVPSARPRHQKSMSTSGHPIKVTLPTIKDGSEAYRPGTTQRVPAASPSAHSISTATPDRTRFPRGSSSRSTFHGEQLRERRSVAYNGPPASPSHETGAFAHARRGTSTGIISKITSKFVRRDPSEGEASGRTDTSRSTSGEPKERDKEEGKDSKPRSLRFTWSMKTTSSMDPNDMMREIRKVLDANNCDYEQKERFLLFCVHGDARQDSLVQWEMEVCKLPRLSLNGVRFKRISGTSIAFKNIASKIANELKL
T4 sequence (O00506 whole entry): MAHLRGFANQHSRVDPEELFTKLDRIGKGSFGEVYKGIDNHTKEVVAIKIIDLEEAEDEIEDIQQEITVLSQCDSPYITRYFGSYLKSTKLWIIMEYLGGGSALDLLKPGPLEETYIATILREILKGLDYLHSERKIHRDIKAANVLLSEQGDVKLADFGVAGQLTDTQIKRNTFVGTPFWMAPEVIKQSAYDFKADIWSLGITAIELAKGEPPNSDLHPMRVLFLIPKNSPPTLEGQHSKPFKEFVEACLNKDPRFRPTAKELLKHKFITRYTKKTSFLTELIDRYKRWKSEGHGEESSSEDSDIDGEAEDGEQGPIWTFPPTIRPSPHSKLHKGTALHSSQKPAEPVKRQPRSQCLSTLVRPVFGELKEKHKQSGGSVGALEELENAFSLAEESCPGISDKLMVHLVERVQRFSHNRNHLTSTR
Sequence of WNK2 (Q9Y3S1 whole entry): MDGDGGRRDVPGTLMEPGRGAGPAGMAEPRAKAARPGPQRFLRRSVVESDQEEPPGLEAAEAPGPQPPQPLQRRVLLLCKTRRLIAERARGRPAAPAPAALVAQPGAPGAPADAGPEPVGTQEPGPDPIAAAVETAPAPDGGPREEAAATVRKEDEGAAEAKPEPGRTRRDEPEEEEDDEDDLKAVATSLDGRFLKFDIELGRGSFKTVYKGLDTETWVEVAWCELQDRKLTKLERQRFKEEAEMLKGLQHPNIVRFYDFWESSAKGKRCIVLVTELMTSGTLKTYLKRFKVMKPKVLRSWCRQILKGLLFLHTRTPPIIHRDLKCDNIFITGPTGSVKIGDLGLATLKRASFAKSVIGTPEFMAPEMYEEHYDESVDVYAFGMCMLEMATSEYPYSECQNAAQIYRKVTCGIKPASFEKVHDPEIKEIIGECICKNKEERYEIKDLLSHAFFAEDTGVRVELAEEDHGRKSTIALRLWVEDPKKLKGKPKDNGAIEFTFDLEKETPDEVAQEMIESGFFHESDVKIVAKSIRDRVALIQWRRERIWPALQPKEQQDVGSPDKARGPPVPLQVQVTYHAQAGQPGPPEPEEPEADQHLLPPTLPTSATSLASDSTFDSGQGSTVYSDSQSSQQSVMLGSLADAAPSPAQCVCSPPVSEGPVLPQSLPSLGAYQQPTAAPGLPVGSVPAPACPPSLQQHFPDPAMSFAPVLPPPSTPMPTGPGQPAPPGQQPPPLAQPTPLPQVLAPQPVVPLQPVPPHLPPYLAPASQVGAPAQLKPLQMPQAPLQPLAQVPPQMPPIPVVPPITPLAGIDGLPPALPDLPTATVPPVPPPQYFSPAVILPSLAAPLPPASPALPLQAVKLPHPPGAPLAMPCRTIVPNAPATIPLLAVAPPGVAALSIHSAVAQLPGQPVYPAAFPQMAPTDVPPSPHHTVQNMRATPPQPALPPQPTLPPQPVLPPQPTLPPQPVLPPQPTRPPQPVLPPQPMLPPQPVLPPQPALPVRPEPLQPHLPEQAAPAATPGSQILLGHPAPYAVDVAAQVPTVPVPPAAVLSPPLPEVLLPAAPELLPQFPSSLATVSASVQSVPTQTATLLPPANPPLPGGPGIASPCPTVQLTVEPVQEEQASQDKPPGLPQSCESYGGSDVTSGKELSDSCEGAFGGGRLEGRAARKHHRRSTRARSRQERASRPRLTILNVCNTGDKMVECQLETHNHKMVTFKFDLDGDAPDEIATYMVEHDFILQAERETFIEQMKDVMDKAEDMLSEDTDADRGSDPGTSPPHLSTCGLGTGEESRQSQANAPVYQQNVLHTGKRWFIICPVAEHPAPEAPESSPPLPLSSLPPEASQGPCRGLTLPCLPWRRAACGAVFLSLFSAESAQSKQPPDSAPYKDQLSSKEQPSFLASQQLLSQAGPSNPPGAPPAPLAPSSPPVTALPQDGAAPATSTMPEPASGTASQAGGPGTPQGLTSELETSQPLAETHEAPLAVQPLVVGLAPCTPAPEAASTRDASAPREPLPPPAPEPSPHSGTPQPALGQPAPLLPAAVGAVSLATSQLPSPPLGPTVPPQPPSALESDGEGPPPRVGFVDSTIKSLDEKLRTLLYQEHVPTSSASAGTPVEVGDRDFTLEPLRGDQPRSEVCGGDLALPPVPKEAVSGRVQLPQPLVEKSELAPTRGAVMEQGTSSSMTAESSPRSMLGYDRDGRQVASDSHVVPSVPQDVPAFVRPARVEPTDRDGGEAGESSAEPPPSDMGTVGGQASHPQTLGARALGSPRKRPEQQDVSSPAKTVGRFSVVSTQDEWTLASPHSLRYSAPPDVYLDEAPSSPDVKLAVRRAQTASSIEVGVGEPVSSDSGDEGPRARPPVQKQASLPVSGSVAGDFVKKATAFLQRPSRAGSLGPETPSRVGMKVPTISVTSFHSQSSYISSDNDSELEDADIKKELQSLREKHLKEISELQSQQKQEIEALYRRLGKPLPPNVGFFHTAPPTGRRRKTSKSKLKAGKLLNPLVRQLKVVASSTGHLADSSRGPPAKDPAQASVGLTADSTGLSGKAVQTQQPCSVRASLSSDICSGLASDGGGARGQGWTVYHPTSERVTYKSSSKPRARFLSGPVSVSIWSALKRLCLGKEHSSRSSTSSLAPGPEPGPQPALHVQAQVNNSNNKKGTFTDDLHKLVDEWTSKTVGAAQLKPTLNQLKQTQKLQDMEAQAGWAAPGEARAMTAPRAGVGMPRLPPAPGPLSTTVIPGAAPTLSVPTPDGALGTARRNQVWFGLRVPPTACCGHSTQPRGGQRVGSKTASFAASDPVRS
Sequence of FER (P16591 whole entry): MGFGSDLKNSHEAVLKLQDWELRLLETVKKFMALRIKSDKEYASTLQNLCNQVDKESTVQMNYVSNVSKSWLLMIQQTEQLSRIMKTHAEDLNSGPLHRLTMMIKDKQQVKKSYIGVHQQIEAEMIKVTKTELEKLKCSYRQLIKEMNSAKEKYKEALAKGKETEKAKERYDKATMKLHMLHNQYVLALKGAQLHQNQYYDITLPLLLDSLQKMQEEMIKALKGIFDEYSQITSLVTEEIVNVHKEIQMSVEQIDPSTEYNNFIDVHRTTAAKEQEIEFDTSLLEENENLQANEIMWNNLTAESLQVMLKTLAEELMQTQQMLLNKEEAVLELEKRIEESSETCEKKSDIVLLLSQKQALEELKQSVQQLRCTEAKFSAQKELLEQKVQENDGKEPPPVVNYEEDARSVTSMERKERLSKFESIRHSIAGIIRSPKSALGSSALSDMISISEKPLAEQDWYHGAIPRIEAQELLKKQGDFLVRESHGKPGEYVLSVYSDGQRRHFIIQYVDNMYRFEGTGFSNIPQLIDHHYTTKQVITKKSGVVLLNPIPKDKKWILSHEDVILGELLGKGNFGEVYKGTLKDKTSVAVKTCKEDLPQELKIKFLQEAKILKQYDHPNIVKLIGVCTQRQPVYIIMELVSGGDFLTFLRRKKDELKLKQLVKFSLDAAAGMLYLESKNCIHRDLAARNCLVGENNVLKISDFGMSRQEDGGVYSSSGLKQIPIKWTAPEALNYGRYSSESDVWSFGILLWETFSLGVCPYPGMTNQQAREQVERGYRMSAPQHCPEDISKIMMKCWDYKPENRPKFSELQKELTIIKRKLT

Question: With `NC(=O)c1cccc2cn(-c3ccc([C@@H]4CCCNC4)cc3)nc12` [Niraparib] as the compound, how does the percent of control binding at 10 µM [1, 10] read?
Answer: 78%

Question: And the percent of control binding at 10 µM [2, 10]?
Answer: 93%

Question: What about the percent of control binding at 10 µM [3, 10] of the same compound?
Answer: 58%

Question: And the percent of control binding at 10 µM [4, 10]?
Answer: 100%

Question: What about the percent of control binding at 10 µM [5, 10] of the same compound?
Answer: 93%

Question: And the percent of control binding at 10 µM [6, 10]?
Answer: 71%

Question: What about the percent of control binding at 10 µM [7, 10] of the same compound?
Answer: 100%

Question: And the percent of control binding at 10 µM [8, 10]?
Answer: 100%

Question: And the percent of control binding at 10 µM [9, 10]?
Answer: 99%

Question: What does the source list for `O=C(c1cc(Cc2n[nH]c(=O)c3ccccc23)ccc1F)N1CCN(C(=O)C2CC2)CC1` [Olaparib]?
Answer: percent of control binding at 10 µM [1, 11]: 96%; percent of control binding at 10 µM [2, 11]: 100%; percent of control binding at 10 µM [3, 11]: 100%; percent of control binding at 10 µM [4, 11]: 88%; percent of control binding at 10 µM [5, 11]: 93%; percent of control binding at 10 µM [6, 11]: 87%; percent of control binding at 10 µM [7, 11]: 89%; percent of control binding at 10 µM [8, 11]: 76%; percent of control binding at 10 µM [9, 11]: 97%

Question: With `CNCc1ccc(-c2[nH]c3cc(F)cc4c3c2CCNC4=O)cc1` [Rucaparib] as the compound, how does the percent of control binding at 10 µM [1, 12] read?
Answer: 79%

Question: What about the percent of control binding at 10 µM [2, 12] of the same compound?
Answer: 95%

Question: And the percent of control binding at 10 µM [3, 12]?
Answer: 35%

Question: What about the percent of control binding at 10 µM [4, 12] of the same compound?
Answer: 85%

Question: What about the percent of control binding at 10 µM [5, 12] of the same compound?
Answer: 85%

Question: And the percent of control binding at 10 µM [6, 12]?
Answer: 38%

Question: What about the percent of control binding at 10 µM [7, 12] of the same compound?
Answer: 74%

Question: What about the percent of control binding at 10 µM [8, 12] of the same compound?
Answer: 66%

Question: What about the percent of control binding at 10 µM [9, 12] of the same compound?
Answer: 87%

Question: Which results are given for `Cn1ncnc1[C@H]1c2n[nH]c(=O)c3cc(F)cc(c23)N[C@@H]1c1ccc(F)cc1` [Talazoparib]?
Answer: percent of control binding at 10 µM [1, 13]: 86%; percent of control binding at 10 µM [2, 13]: 94%; percent of control binding at 10 µM [3, 13]: 100%; percent of control binding at 10 µM [4, 13]: 94%; percent of control binding at 10 µM [5, 13]: 89%; percent of control binding at 10 µM [6, 13]: 80%; percent of control binding at 10 µM [7, 13]: 100%; percent of control binding at 10 µM [8, 13]: 100%; percent of control binding at 10 µM [9, 13]: 80%
